We go through eleven compounds from US20250243194A1, “ANTAGONIST OF ADENOSINE RECEPTORS” (AdoRx Therapeutics Limited, priority 2022, published 2025).

Test [1] concerns CD8+ T cells in human whole blood. The experiment in a line: Measurement of pCREB in CD8+ T cells in human whole blood. As to conditions: T-cell, 3 μM NECA, rolipram, FACS. Format: cell-based. As for the experimental part: Heparinised human whole blood was pre-incubated at 37° C. with serial dilutions of A2a antagonists for 20 min. and the phosphodiesterase inhibitor rolipram to amplify the pCREB response. The adenosine receptor agonist NECA is then added at a final concentration of 3 μM and following a 60 min incubation the blood is fixed and red blood cells lysed. White blood cells are isolated, permeabilized and stained with directly conjugated fluorescent antibodies to phospho-CREB (Alexa Fluor 488) and CD8 (Alexa Fluor 647) and the level of phospho-CREB in CD8+ T cells is measured by FACS using a BD Accuri C6 Flow Cytometer.

In a further test the test system is human PBMCs. The experiment in a line: CD3/CD28 stimulated IL-2 release NECA reversal assay in human PBMCs. It is filed as cell-based. As to conditions: PBMC, reversal of 1 uM NECA, 24 hours. Here is the method:
Blood is drawn from healthy volunteers using sodium citrate as the anticoagulant (0.3% final concentration). After centrifugation of the blood over Histopaque-1077, PBMCs are collected from the Histopaque/plasma interface and washed twice in PBS (300 g for 10 mins at room temp). Cells are plated at 50,000 cells/well in 150 μl RPMI/10% FCS in 96-well cell culture plates that have been precoated with 1 μg/ml CD3 antibody. 50 μl diluted compound mix is added to the cells, to obtain final concentrations of 1 μg/ml CD28 antibody, 1 uM NECA and 0.003-10 μM adenosine receptor antagonist. Assay plates are incubated for 24 hours at 37° C. in a humidified incubator. Culture supernatant is tested for IL-2 levels using the human IL-2 Tissue Culture Kit (Meso Scale Discovery).

For test [2], the system named is immature monocyte-derived dendritic cells (MoDC). The experiment in a line: MoDC pCREB assay. The settings on record: Homo sapiens, Dendritic cell, CD209+/CD86-low cells, 1 μM NECA, 20 μM rolipram, largely specific to A2B. It is filed as cell-based. As for the experimental part:
Monocytes are isolated from human whole blood using CD14 microbeads (Miltenyi Biotec 130-050-201) and differentiated to immature monocyte-derived dendritic cells (MoDC) by culture for 5 days in Mo-DC Differentiation Medium (Miltenyi Biotec 130-094-812). MoDCs are seeded into fresh medium into U bottomed 96 well culture plates and pre-incubated at 37° C. with serial dilutions of A2A/B antagonists for 15 min. At the same time the cells are co-incubated with the phosphodiesterase inhibitor rolipram (final concentration of 20 μM) to amplify the subsequent pCREB response. Adenosine receptor agonist NECA is then added at 1 μM final concentration, leading to an increase in CREB phosphorylation. Following a 45 min incubation at 37° C., the cells are fixed, permeabilized and stained with directly conjugated fluorescent antibodies to phospho-CREB (Alexa Fluor 488), CD209 (PerCP-Cy5.5) and CD86 (APC). Samples are analysed by FACS to measure fluorescence in corresponding channels, and also forward and Side scatter. The population of CD209+/CD86-low cells corresponding to immature dendritic cells is gated for analysis of pCREB levels.
Approximately 5% of the analysed cells are positive for detection of pCREB in the absence of agonist stimulation, representing the background signalling of all pathways upstream of CREB. Following NECA stimulation this is increased to ˜80% pCREB+ve, and this increase is essentially fully reversible by A2B or dual A2A/B antagonists.
IC50 is represented as the point of inflection of a sigmoidal curve

In test [3] the target is human Adenosine A2b receptor (Homo sapiens (Human), UniProt P29275). Kind of test: Adenosine receptor TR-FRET binding assay (A2b). The settings on record: inhibition of binding of 30 nM CA200645; CHO cell membranes; Ki from IC50 by Cheng and Prusoff. Put shortly:
(§1)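 Compounds incubated 2 h at room temperature with membranes from CHO cells expressing terbium-labelled human receptors, competing with the fluorescent antagonist CA200645 (30 nM for A2b; 100 nM for A1, A2a and A3). Read by TR-FRET (665/620 nm); non-specific binding defined with 10 μM XAC. Ki derived from IC50 via Cheng-Prusoff.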

Test [4] concerns the target human Adenosine A2a receptor (Homo sapiens (Human), UniProt P29274). Kind of test: Adenosine receptor TR-FRET binding assay (A2a). The settings on record: inhibition of binding of 100 nM CA200645; CHO cell membranes; Ki from IC50 by Cheng and Prusoff. Put shortly: as §1
The target in test [5] is human Adenosine A1 receptor (Homo sapiens (Human), UniProt P30542). The experiment in a line: Adenosine receptor TR-FRET binding assay (A1). The settings on record: inhibition of binding of 100 nM CA200645; CHO cell membranes; Ki from IC50 by Cheng and Prusoff. In outline: as §1
The target of test [6] is human Adenosine A3 receptor (Homo sapiens (Human), UniProt P0DMS8). The experiment in a line: Adenosine receptor TR-FRET binding assay (A3). The settings on record: inhibition of binding of 100 nM CA200645; CHO cell membranes; Ki from IC50 by Cheng and Prusoff. As for the experimental part:
All FRET binding experiments were conducted at room temperature in white 384-well plates, in assay binding buffer containing 1× LabMed (Cisbio, France), 100 μg/mL saponin, 1% DMSO and 0.02% pluronic acid. Binding of the fluorescently labelled Adenosine receptor antagonist XAC (CA200645, FRET acceptor) to terbium-labelled A1, A2a, A2b and A3 adenosine receptors (FRET donors) was detected by time-resolved FRET due to the close proximity of the donor and acceptor in a binding event. To investigate the ability of unlabelled test compounds to bind to Adenosine A1, A2a, A2b and A3 receptors, dose response curves were constructed that determined the ability of a range of concentrations to inhibit the binding of 30 nM CA200645 to the A2b receptor and 100 nM CA200645 to the A1, A2a, and A3 receptor.
Serial dilution (1:3 dilutions) of test compounds in neat DMSO and transfer of a 400 nL sample of test compound into the assay plate was carried out using the Mosquito (TTP Labtech, UK). The compound samples were incubated for 2 hours at room temperature with a fixed concentration of CA200645 defined for each receptor (see above) and CHO cell membranes containing the human Adenosine A1 (0.5 μg/well), A2a (0.3 μg/well), A2b (1 μg/well) or A3 (1 μg/well) receptor in 40 μL of assay buffer. Total and non-specific binding of CA200645 was determined in the absence and presence of 10 μM XAC, respectively. Following 2 hours incubation, the level of CA200645 binding was detected on a Pherastar FSX (BMG Labtech, Germany) using standard TR-FRET settings. The terbium donor was excited with three laser flashes at a wavelength of 337 nm, and donor and acceptor emission was detected at 620 nm and 665 nm wavelengths, respectively. FRET ratios were obtained by multiplying the acceptor/donor ratio value by 10,000. Specific binding was determined by subtracting the non-specific binding FRET ratio from the total binding FRET ratio. Compound IC50 curves were analysed using GraphPad Prism 7.0 (GraphPad, USA) and Ki affinity values were determined from the obtained IC50 values using the method of Cheng and Prusoff.

Sequence of human Adenosine A2b receptor (P29275 whole entry): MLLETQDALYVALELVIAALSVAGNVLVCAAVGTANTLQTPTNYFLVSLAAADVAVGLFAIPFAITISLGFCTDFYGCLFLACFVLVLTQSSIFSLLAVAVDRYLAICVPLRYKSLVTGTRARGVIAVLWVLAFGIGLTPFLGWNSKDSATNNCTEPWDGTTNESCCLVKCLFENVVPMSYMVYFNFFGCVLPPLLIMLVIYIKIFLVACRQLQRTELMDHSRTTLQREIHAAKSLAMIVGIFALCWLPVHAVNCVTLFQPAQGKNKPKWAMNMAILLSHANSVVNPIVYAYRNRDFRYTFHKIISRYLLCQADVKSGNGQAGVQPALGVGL
Sequence of human Adenosine A1 receptor (P30542 whole entry): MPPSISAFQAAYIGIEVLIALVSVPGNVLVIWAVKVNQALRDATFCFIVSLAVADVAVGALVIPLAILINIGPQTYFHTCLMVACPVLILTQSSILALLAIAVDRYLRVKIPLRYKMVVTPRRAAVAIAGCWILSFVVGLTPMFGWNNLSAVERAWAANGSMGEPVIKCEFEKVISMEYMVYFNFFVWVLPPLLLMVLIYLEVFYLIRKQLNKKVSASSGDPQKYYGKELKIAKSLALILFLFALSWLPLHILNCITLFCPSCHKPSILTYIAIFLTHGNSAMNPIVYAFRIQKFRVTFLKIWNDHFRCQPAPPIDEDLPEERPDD
Sequence of human Adenosine A2a receptor (P29274 whole entry): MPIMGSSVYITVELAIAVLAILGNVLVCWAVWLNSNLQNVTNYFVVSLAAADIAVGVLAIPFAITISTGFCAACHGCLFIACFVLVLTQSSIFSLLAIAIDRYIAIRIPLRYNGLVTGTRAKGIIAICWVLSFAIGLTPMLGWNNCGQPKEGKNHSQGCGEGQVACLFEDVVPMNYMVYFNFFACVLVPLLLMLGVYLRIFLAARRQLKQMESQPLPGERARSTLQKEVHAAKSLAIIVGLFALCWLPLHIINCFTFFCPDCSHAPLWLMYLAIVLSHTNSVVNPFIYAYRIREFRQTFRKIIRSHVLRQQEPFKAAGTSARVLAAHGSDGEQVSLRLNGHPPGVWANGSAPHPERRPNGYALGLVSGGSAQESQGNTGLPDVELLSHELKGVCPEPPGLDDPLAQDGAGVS
Sequence of human Adenosine A3 receptor (P0DMS8 whole entry): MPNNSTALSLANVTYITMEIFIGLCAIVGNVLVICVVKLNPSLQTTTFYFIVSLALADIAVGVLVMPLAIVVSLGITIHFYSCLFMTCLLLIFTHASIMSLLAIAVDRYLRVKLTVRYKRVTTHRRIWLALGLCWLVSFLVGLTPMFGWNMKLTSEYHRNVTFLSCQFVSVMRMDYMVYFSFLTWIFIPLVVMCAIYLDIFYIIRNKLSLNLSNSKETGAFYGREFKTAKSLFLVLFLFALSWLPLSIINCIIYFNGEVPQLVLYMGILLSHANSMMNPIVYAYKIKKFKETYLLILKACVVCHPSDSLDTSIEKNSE

Consider `Cc1ncnc2ccc(-c3sc(NC(=O)N4CCN(C5COC5)CC4)nc3-c3cccc(C#N)c3)cc12` [Example 7.28, N-[4-(3-Cyanophenyl)-5-(4-methylquinazolin-6-yl)thiazol-2-yl]-4-(oxetan-3-yl)piperazine-1-carboxamide], for which the IC50 in test [1] is 22 nM; in the test with human PBMCs it was 0.9 nM; in test [2], 5 nM. For the same compound, the inhibition constant (Ki) in test [3] was 3.3 nM; in test [4] it was 0.64 nM; in test [5], 65 nM.

With `Cc1ncnc2ccc(-c3sc(NC(=O)N4CCC5(CC4)CNC(=O)C5)nc3-c3cccc(C#N)c3)cc12` [Example 7.17, N-[4-(3-Cyanophenyl)-5-(4-methylquinazolin-6-yl)thiazol-2-yl]-3-oxo-2,8-diazaspiro[4.5]decane-8-carboxamide], the figures for the IC50 (in test [1]; in the test on human PBMCs; in test [2]) were 4 nM, 1.1 nM and 2 nM, respectively. For the same compound, the Ki is 1.9 nM in test [3], 0.2 nM in test [4] and 13 nM in test [5].

With `Cc1ncnc2ccc(-c3sc(NC(=O)N4CC[C@@H](C(C)(C)O)C4)nc3-c3cccc(C#N)c3)cc12` [Example 7, (3R)—N-[4-(3-Cyanophenyl)-5-(4-methylquinazolin-6-yl)thiazol-2-yl]-3-(1-hydroxy-1-methyl-ethyl)pyrrolidine-1-carboxamide], the concentration for half-maximal inhibition (IC50) in test [1] was determined as 10 nM; in the test with human PBMCs, 0.3 nM; in test [2], 3 nM. Further, the values for the Ki in test [3] and in test [4] were 1.4 nM and 0.1 nM, respectively.

As to `Cc1ncnc2ccc(-c3sc(NC(=O)N4CCC5(CC4)COCCN5)nc3-c3cccc(C#N)c3)cc12` [Example 2, N-[4-(3-Cyanophenyl)-5-(4-methylquinazolin-6-yl)thiazol-2-yl]-4-oxa-1,9-diazaspiro[5.5]undecane-9-carboxamide], the IC50 came out at 20 nM in test [1] and 3 nM in test [2]. The Ki in test [3] came out at 2.8 nM; in test [4] it was 0.32 nM; in test [5] it was 70 nM.

Regarding `Cc1ncnc2ccc(-c3sc(NC(=O)N4CC5(CN(C)C5)C4)nc3-c3cccc(C#N)c3)cc12` [Example 7.4, N-[4-(3-Cyanophenyl)-5-(4-methylquinazolin-6-yl)thiazol-2-yl]-6-methyl-2,6-diazaspiro[3.3]heptane-2-carboxamide], the results for the IC50 (in test [1]; in the test with human PBMCs; in test [2]) were 60 nM, 3 nM and 4 nM, respectively. Besides, the inhibitory constant (Ki) worked out at 6.4 nM in test [3], 1.83 nM in test [4] and 345 nM in test [5].

With `Cc1ncnc2ccc(-c3sc(NC(=O)N4CCC(C)(C#N)CC4)nc3-c3cccc(C#N)c3)cc12` [Example 6, 4-Cyano-N-[4-(3-cyanophenyl)-5-(4-methylquinazolin-6-yl)thiazol-2-yl]-4-methyl-piperidine-1-carboxamide], the results for the half-inhibitory concentration (IC50) (in test [1]; with human PBMCs; in test [2]) were 11 nM, 0.1 nM and 2 nM, respectively. The Ki amounted to 0.8 nM in test [3], 0.07 nM in test [4] and 3 nM in test [5].

Take `Cc1ncnc2ccc(-c3sc(NC(=O)N4CCC(C)(C#N)C4)nc3-c3cccc(C#N)c3)cc12` (centres unmarked) [Example 7.25, 3-Cyano-N-[4-(3-cyanophenyl)-5-(4-methylquinazolin-6-yl)thiazol-2-yl]-3-methyl-pyrrolidine-1-carboxamide]: the IC50 was found to be 7 nM in test [1], 0.3 nM in the test on human PBMCs and 2 nM in test [2]. The Ki in test [3] came to 1.1 nM; in test [4], 0.12 nM; in test [5], 3 nM.

With `Cc1ncnc2c(C)cc(-c3sc(NC(=O)N4CC5(COC5)C4)nc3-c3cccc(C#N)c3)cc12` [Example 20, N-[4-(3-Cyanophenyl)-5-(4,8-dimethylquinazolin-6-yl)thiazol-2-yl]-2-oxa-6-azaspiro[3.3]heptane-6-carboxamide], the figures for the concentration for half-maximal inhibition (IC50) (in test [1]; with human PBMCs; in test [2]) were 105 nM, 0.8 nM and 3 nM, respectively. Besides, the inhibitory constant (Ki) in test [3] turned out to be 1 nM; in test [4] it was 0.18 nM; in test [5], 8 nM.

With `N#Cc1cccc(-c2nc(NC(=O)N3CCOCC3)sc2-c2ccn3nccc3c2)c1` [Example 33, N-[4-(3-Cyanophenyl)-5-pyrazolo[1,5-a]pyridin-5-yl-thiazol-2-yl]morpholine-4-carboxamide], the values for the IC50 (in test [1]; in the test with human PBMCs) were 219 nM and 6.4 nM, respectively. Moreover, the inhibitory constant (Ki) in test [6] was 758 nM; in test [3], 0.5 nM; in test [4], 0.36 nM; in test [5], 0.2 nM.

Turning to `Cc1ncnc2ccc(-c3sc(NC(=O)N4CC[C@H](C(C)(C)O)C4)nc3-c3cccc(C#N)c3)cc12` [Example 5, (3S)—N-[4-(3-Cyanophenyl)-5-(4-methylquinazolin-6-yl)thiazol-2-yl]-3-(1-hydroxy-1-methyl-ethyl)pyrrolidine-1-carboxamide], the IC50 was determined as 15 nM in test [1], 0.4 nM in the test on human PBMCs and 3 nM in test [2]. In addition, the inhibition constant Ki turned out to be 1.7 nM in test [3] and 0.17 nM in test [4].

For the compound `Cc1ncnc2ccc(-c3sc(NC(=O)N4CCC(N5CCNCC5)CC4)nc3-c3cccc(C#N)c3)cc12` [Example 3, N-[4-(3-Cyanophenyl)-5-(4-methylquinazolin-6-yl)thiazol-2-yl]-4-piperazin-1-yl-piperidine-1-carboxamide], the IC50 in test [1] came to 70 nM; in test [2] it was 6 nM. For the same compound, the inhibitory constant (Ki) in test [3] is 7.7 nM; in test [4] it was 2.26 nM; in test [5], 554 nM.
